Measured values taken from paper PMC8483441 (Journal of Medicinal Chemistry, 2021).
Values after ≈ are worked out from the molar mass of the structure shown. Square brackets hold non-standard residues; d marks the D form. Peptide text beside a SMILES is read from it. dOrn = NCCC[C@@H](N)C(=O)O; Orn = NCCC[C@H](N)C(=O)O

Tests used:
S. enterica = type: cell-based, Salmonella enterica; conditions: 24 h
Protocol: (§1) Human serum was purchased from Sigma (St Louis, USA).
(§2) Incubations were kept at 37 °C for 24 h. Results are the average of three independent studies.

Pseudomonas sp. [1] = assay: MIC, broth microdilution; type: cell-based; conditions: Pseudomonas sp. ATCC 15915; Mueller-Hinton medium, 5 × 10^5 CFU/mL, 37 °C, 24 h; average of three independent studies
Protocol: as §1, §2

A. baumannii 3862 = assay: MIC, clinical bacterial strain; type: cell-based
Protocol: as §1, §2

E. coli cf073 = assay: MIC, clinical bacterial strain; type: cell-based
Protocol: as §1, §2

P. aeruginosa 827632 = assay: MIC, clinical bacterial strain; type: cell-based
Protocol: as §1, §2

A. baumannii 3879 = assay: MIC, clinical bacterial strain; type: cell-based
Protocol: as §1, §2

E. coli 116878 = assay: MIC, clinical bacterial strain; type: cell-based
Protocol: as §1, §2

S. typhimurium 324 = assay: MIC, clinical bacterial strain; type: cell-based
Protocol: as §1, §2

S. typhimurium 365 = assay: MIC, clinical bacterial strain; type: cell-based
Protocol: as §1, §2

A. baumannii 3880 = assay: MIC, clinical bacterial strain; type: cell-based
Protocol: as §1, §2

P. aeruginosa 827651 = assay: MIC, clinical bacterial strain; type: cell-based
Protocol: as §1, §2

A. baumannii 3878 = assay: MIC, clinical bacterial strain; type: cell-based
Protocol: as §1, §2

MRC-5 cells = assay: Cytotoxicity in mammalian cells (MTT assay); type: cell-based; conditions: 4 h
Protocol: (§3) MRC-5 cells were grown in Eagle’s minimum essential medium (MEMα), supplemented with 10% fetal bovine serum (FBS). 96-well plates were seeded with 3 × 10^4 cells/well and cultured overnight in order to get cells adhered into the plate and then incubated with two-fold peptide serial dilutions. After 4 h of incubation, the medium containing the peptides was replaced by MEMα supplemented with FBS and 3-(4,5-dimethylthiazol-2-yl)-2,5-diphenyltetrazolium bromide (MTT) at 0.4 mg/mL and incubated for 150 min. Detection of formazan crystals in the living cells was done by cell disruption by addition of 200 μL of dimethyl sulfoxide (DMSO) followed by absorbance measuring at 600 nm in a Tecan Infinite F Nano+ microplate reader (Tecan, Germany). Results are the average of three independent studies.

[2] = Cytotoxicity in mammalian cells (MTT assay); type: cell-based; conditions: MRC-5 cytotoxicity (IC50)
Protocol: as §3

Salmonella enterica = type: cell-based; conditions: 24 h
Protocol: as §2

Acinetobacter baumannii = type: cell-based; conditions: 50 μL from MIC wells seeded into Petri plates, 24 h; lowest concentration without detectable growth
Protocol: as §2

Escherichia coli = type: cell-based; conditions: 24 h
Protocol: as §2

S. flexneri = conditions: 24 h
From the text: Purified horse red blood cells were acquired from Thermo Fisher Scientific (Hampshire, England). Human serum was purchased from Sigma (St Louis, USA). E. coli was obtained from the Coli Genetic Stock Center (BW25113). S. flexneri (ATCC 29903), A. baumannii (ATCC 15308), Pseudomonas sp. (ATCC 15915), and S. enterica (ATCC 14028) were obtained from the CECT (Valencia, Spain). Clinical strains were supplied by the Vall d’Hebron Hospital (Barcelona, Spain). MRC5 fibroblasts were obtained from the Cytometry and Cell Culture Facility (SCAC, UAB) and originally purchased from ATCC.
The antibiotic activity was defined by the minimum peptide concentration where the microorganism is unable to grow. The assay was done in polypropylene 96-well plates (Greiner, Frickenhausen, Germany) to avoid peptide binding to plate wells. Peptides were dissolved in water containing 0.4% w/v bovine serum albumin (BSA) and 0.02% v/v glacial acetic acid to prevent self-aggregation, following the reference protocol by Wiegand et al.,[42] based on the classical microtiter broth dilution recommended by the […]. Initial bacteria inoculum was adjusted to 5 × 10^5 CFU/mL in Mueller-Hinton (MH) medium. Incubations were kept at 37 °C for 24 h. Results are the average of three independent studies. MIC assays in the presence of serum were performed by incubating the peptide with human serum at a 1:1 ratio. Then, 10^6 cfu/mL of Pseudomonas sp. were incubated with serial dilutions of the peptides for 4 h. To determine the MBC, 50 μL from all wells were seeded into Petri plates and incubated for 24 h. The MBC concentration was attributed to the lowest concentration without detectable bacterial growth for each peptide.

E. coli = type: cell-based, Escherichia coli; conditions: 24 h
Protocol: as §1, §2

A. baumannii = type: cell-based, Acinetobacter baumannii; conditions: A. baumannii ATCC 15308; Mueller-Hinton medium, 5 × 10^5 CFU/mL, 37 °C, 24 h; average of three independent studies
Protocol: as §1, §2

Shigella flexneri = conditions: 50 μL from MIC wells seeded into Petri plates, 24 h; lowest concentration without detectable growth
Protocol: The antibiotic activity was defined by the minimum peptide concentration where the microorganism is unable to grow. The assay was done in polypropylene 96-well plates (Greiner, Frickenhausen, Germany) to avoid peptide binding to plate wells. Peptides were dissolved in water containing 0.4% w/v bovine serum albumin (BSA) and 0.02% v/v glacial acetic acid to prevent self-aggregation, following the reference protocol by Wiegand et al.,[42] based on the classical microtiter broth dilution recommended by the National Committee of Laboratory Safety and Standards (NCLSS). Initial bacteria inoculum was adjusted to 5 × 10^5 CFU/mL in Mueller-Hinton (MH) medium. Incubations were kept at 37 °C for 24 h. Results are the average of three independent studies. […] To determine the MBC, 50 μL from all wells were seeded into Petri plates and incubated for 24 h. The MBC concentration was attributed to the lowest concentration without detectable bacterial growth for each peptide.

Pseudomonas sp. [3] = assay: Minimum bactericidal concentration (MBC); type: cell-based; conditions: 50 μL from MIC wells seeded into Petri plates, 24 h; lowest concentration without detectable growth
Protocol: as §2

horse red blood cells = assay: Hemolytic activity; type: cell-based; conditions: red cells of horse, 4 h, 250
Protocol: The peptide toxicity was determined detecting the disruption of horse red blood cells, following a previous assay report.[35] 10-fold diluted cells in PBS were centrifuged three times at 800g to eliminate the hemoglobin from disrupted cells. After the last resuspension, erythrocytes were incubated with the peptides for 4 h at 37 °C. The detection was done measuring the supernatant absorbance in a VICTOR3 multilabel plate reader (Perkin Elmer, Waltham, Massachusetts) at 540 nm in a microplate reader. Percentage of hemolysis was calculated through a pattern done with dilutions of total cell lysis done with a 1% Triton X-100 buffer. Results are the average of three independent studies.

## CC[C@H](C)[C@H](NC(=O)[C@H](C)NC(=O)[C@H](CCCN)NC(=O)[C@H](CCSC)NC(=O)[C@H](C)NC(=O)[C@@H](NC(=O)[C@@H](NC(=O)[C@H](CCCN)NC(=O)[C@@H]1CCCN1C(=O)[C@H](CO)NC(=O)[C@@H](NC(=O)[C@H](Cc1c[nH]cn1)NC(=O)[C@H](CCC(N)=O)NC(=O)[C@@H](NC(=O)[C@H](C)NC(=O)[C@H](Cc1ccccc1)NC(=O)[C@H](Cc1c[nH]c2ccccc12)NC(=O)[C@H](CCC(N)=O)NC(=O)[C@H](C)NC(=O)[C@H](CCCN)NC(=O)[C@@H](NC(=O)[C@H](Cc1ccccc1)NC(=O)[C@H]1CCCN1C(=O)[C@H](N)CCCN)[C@@H](C)O)[C@@H](C)CC)[C@@H](C)CC)[C@@H](C)O)[C@@H](C)CC)C(=O)N[C@@H](CC(N)=O)C(=O)N[C@@H](CC(N)=O)C(=O)N[C@@H](Cc1ccc(O)cc1)C(=O)N[C@@H](CCCN)C(=O)N[C@@H](Cc1c[nH]c2ccccc12)C(=O)N[C@@H](CCCN)C(N)=O [peptide 7] (H-[dOrn][dP]FT[Orn]AQWFAIQHISP[Orn]TIAM[Orn]AINNY[Orn]W[Orn]-NH2)
S. enterica
  MIC S. enterica: 25 µM (≈ 87.6 µg/mL)
Pseudomonas sp. [1]
  MIC Pseudomonas sp.: 1.56 µM (≈ 5.47 µg/mL)
A. baumannii 3862
  MIC A. baumannii 3862: 0.78 µM (≈ 2.73 µg/mL)
E. coli cf073
  MIC E. coli cf073: 3.13 µM (≈ 11 µg/mL)
P. aeruginosa 827632
  MIC P. aeruginosa 827632: 25 µM (≈ 87.6 µg/mL)
A. baumannii 3879
  MIC A. baumannii 3879: 1.56 µM (≈ 5.47 µg/mL)
E. coli 116878
  MIC E. coli 116878: 6.25 µM (≈ 21.9 µg/mL)
S. typhimurium 324
  MIC S. typhimurium 324: 25 µM (≈ 87.6 µg/mL)
S. typhimurium 365
  MIC S. typhimurium 365: 25 µM (≈ 87.6 µg/mL)
A. baumannii 3880
  MIC A. baumannii 3880: 6.25 µM (≈ 21.9 µg/mL)
P. aeruginosa 827651
  MIC P. aeruginosa 827651: 100 µM (≈ 351 µg/mL)
A. baumannii 3878
  MIC A. baumannii 3878: 0.78 µM (≈ 2.73 µg/mL)
MRC-5 cells
  IC50: 170 ± 20 µM
[2]
  IC50: ≤ 230 µM
Salmonella enterica
  MBC Salmonella enterica: 25 µM (≈ 87.6 µg/mL)
Acinetobacter baumannii
  MBC Acinetobacter baumannii: 6.25 µM (≈ 21.9 µg/mL)
Escherichia coli
  MBC Escherichia coli: 3.13 µM (≈ 11 µg/mL)
S. flexneri
  MIC S. flexneri: 6.25 µM (≈ 21.9 µg/mL)
E. coli
  MIC E. coli: 3.13 µM (≈ 11 µg/mL)
A. baumannii
  MIC A. baumannii: 6.25 µM (≈ 21.9 µg/mL)
Shigella flexneri
  MBC Shigella flexneri: 6.25 µM (≈ 21.9 µg/mL)
Pseudomonas sp. [3]
  MBC Pseudomonas sp.: 1.56 µM (≈ 5.47 µg/mL)
Horse red blood cells
  hemolysis % (250 μM peptide): 3.6 ± 0.7%
